Measurements reported in patent US10752588B2 (The Broad Institute, Inc., priority 2014, dated 2020).
Values after ≈ are worked out from the molar mass of the structure shown.

Tests used:
plasma protein [1] = experiment: Plasma protein binding, human; type: in vitro ADME; conditions: plasma, read-out: Plasma Protein Binding % bound
Plasma stability, rat = type: in vitro ADME
Caco2 = Caco2 permeability; type: in vitro ADME; set-up: unit not given beside the values; conditions: for Caco2 A-B: A-B direction; for Caco2 B-A: B-A direction
Solubility in PBS = type: physicochemical; conditions: aqueous buffer
Rotarod performance = type: in vivo; conditions: mice, 10 or 30 mg/kg, compared with clozaril at 3 mg/kg
Description: In the test, test animals are placed on a horizontally oriented, rotating cylinder (rod) suspended above a cage floor. The test animals naturally try to stay on the rotating cylinder, or rotarod, and avoid falling to the ground. Test animals are administered with various compounds (e.g., compounds of the invention or control compounds). The length of time that a given animal stays on this rotating rod is a measure of the animal's balance, coordination, physical condition, and motor-planning. The speed of the rotarod is mechanically driven, and can be held constant.
In the test, mice were placed on a horizontally oriented, rotating cylinder (rod) suspended above a cage floor, which was low enough not to injure the animal, but high enough to induce avoidance of fall. The mice naturally try to stay on the rotating cylinder, or rotarod, and avoid falling to the ground.

human D2R/β-arrestin [2] = target: T1, human D2R/β-arrestin (Homo sapiens (Human), UniProt P14416); experiment: Gi/cAMP agonist assay (Lance Ultra cAMP, Forskolin); type: cell-based; conditions: CHO-K1 cell line expressing human D2R/β-arrestin
How it was run: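 Read-out was Lance Ultra competitive TR-FRET (Eu-cAMP tracer plus ULight-anti-cAMP) following forskolin-induced cAMP production. Before forskolin stimulation, compounds were pin-transferred onto the seeded cells for 10 min at 37 °C.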

[3] = Microsomal stability, mouse
human D2R/β-arrestin [4] = target: T1, human D2R/β-arrestin; experiment: β-Arrestin agonist assay (PathHunter); type: cell-based; conditions: CHO-K1 cell line expressing human D2R/β-arrestin
How it was run: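 Readout follows addition of Buffer:Emerald II:Galactor-Star reagent (19:5:1) to agonist-treated plates, measured as luminescence or fluorescence.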

human D2R/β-arrestin [5] = target: T1, human D2R/β-arrestin; experiment: cell-based; conditions: β-arrestin Antagonist, CHO-K1 cell line expressing human D2R/β-arrestin; quinpirole used as agonist
plasma protein [6] = experiment: Plasma protein binding, mouse; type: in vitro ADME; conditions: plasma, read-out: Plasma Protein Binding % bound
human D2R/β-arrestin [7] = target: T1, human D2R/β-arrestin; experiment: cell-based; conditions: cAMP Antagonist, CHO-K1 cell line expressing human D2R/β-arrestin; quinpirole used as agonist
[8] = Microsomal stability, rat; type: in vitro ADME
plasma protein [9] = experiment: Plasma protein binding, rat; type: in vitro ADME; conditions: plasma, read-out: Plasma Protein Binding % bound
Plasma stability, human = type: in vitro ADME
[10] = Microsomal stability, human; type: in vitro ADME
[11] = Plasma protein binding, human; type: in vitro ADME; conditions: plasma, read-out: Plasma Protein Binding % bound
D2 = D2 (Homo sapiens (Human), UniProt P14416); experiment: D2 radioligand binding assay
[12] = Plasma protein binding, mouse; type: in vitro ADME; conditions: plasma, read-out: Plasma Protein Binding % bound
[13] = Plasma protein binding, rat; type: in vitro ADME; conditions: plasma, read-out: Plasma Protein Binding % bound
MDR1-MDCKII = MDR1-MDCKII permeability assay; type: in vitro ADME
Source text: MDR1-MDCKII Permeability Assay
This is a standard permeability assay that predicts brain penetration. It was ran by the CRO Absorption Systems (www.absorption.com/drug-discovery/permeability/cell-based/).

human D2R/β-arrestin [14] = target: T1, human D2R/β-arrestin; conditions: CHO-K1 cell line expressing human D2R/β-arrestin, β-arrestin and Gi/cAMP pathways, FIG. 1

T1 sequence (P14416 whole entry): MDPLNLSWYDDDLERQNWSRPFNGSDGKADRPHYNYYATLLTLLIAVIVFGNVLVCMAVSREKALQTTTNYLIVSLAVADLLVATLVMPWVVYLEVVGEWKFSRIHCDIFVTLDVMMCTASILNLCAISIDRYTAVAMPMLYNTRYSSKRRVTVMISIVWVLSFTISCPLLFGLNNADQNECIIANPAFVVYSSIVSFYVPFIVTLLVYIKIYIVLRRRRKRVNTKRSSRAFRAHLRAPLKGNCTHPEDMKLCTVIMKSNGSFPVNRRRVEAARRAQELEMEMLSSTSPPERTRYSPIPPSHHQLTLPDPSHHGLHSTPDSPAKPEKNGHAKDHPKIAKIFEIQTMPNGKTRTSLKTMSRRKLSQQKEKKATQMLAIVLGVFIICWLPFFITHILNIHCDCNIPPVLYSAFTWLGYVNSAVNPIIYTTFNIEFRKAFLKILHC
Chain of D2 (P14416 whole entry): as above

Row | Structure (SMILES) | Plasma Stability: % remaining after 5 hours (Plasma stability, rat) | Caco2 A-B (Caco2) | Caco2 B-A (Caco2) | solubility (Solubility in PBS) | EC50 (human D2R/β-arrestin [2]) | Microsomal Stability: % remaining after 60 minutes [3] | EC50 (human D2R/β-arrestin [4]) | IC50 (human D2R/β-arrestin [5]) | IC50 (human D2R/β-arrestin [7]) | Microsomal Stability: % remaining after 60 minutes [8] | Plasma Stability: % remaining after 5 hours (Plasma stability, mouse) | Plasma Stability: % remaining after 5 hours (Plasma stability, human) | Microsomal Stability: % remaining after 60 minutes [10] | fraction unbound [11] | Ki (D2) | fraction unbound [12] | fraction unbound [13] | further results
1 | COc1cccc(C(NC(=O)C2CCN(CCOc3ccccc3)CC2)c2ccccn2)c1 (stereo not drawn) [Compound 35] | 99.6% | 26.7 | 46.7 | 441 µM (≈ 196 µg/mL) | 1000 to 10000 nM | 74% | > 30000 nM | 1000 to 10000 nM | 1000 to 10000 nM | 80% | 98% | 100% | 83% | – | – | – | – | fraction unbound (plasma protein [1]): 0.086; catalepsy in the rotarod test (Rotarod performance): promotes far less catalepsy than the known antipsychotic Clozapine at efficacious doses; fraction unbound (plasma protein [6]): 0.074; fraction unbound (plasma protein [9]): 0.042
2 | CN(CC1CCN(CCOc2ccccc2)CC1)C(c1ccc(Cl)cc1)c1ccccn1 (stereo not drawn) [Compound 79, 1-(4-chlorophenyl)-N-methyl-N-((1-(2-phenoxyethyl)piperidin-4-yl)methyl)-1-(pyridin-2-yl)methanamine] | – | – | – | – | < 100 nM | m0% | > 30000 nM | 100 to 1000 nM | > 30000 nM | – | – | – | – | – | 100 to 1000 nM | – | – | MDR1-MDCKII A-B (MDR1-MDCKII; A-B direction): 6.17; MDR1-MDCKII B-A (MDR1-MDCKII; B-A direction): 22.1; functional profile at D2R (antagonist mode) (human D2R/β-arrestin [14]): representative β-arrestin biased D2R antagonists
3 | O=C(NC(c1ccncc1)c1ccc(Cl)cc1)C1CCN(CCOc2ccccc2)CC1 (stereo not drawn) [Compound 112, N-((4-chlorophenyl)(pyridin-4-yl)methyl)-1-(2-phenoxyethyl)piperidine-4-carboxamide] | 95% | – | – | 19 µM (≈ 8.55 µg/mL) | < 100 nM | 29% | > 30000 nM | 1000 to 10000 nM | > 30000 nM | 53% | 95% | 100% | 52% | 0.064 | – | 0.05 | 0.02 | –

The next lines start with results.

Row | Plasma Stability: % remaining after 5 hours (Plasma stability, rat) | Caco2 A-B (Caco2) | Caco2 B-A (Caco2) | solubility (Solubility in PBS) | EC50 (human D2R/β-arrestin [2]) | Microsomal Stability: % remaining after 60 minutes [3] | EC50 (human D2R/β-arrestin [4]) | IC50 (human D2R/β-arrestin [5]) | IC50 (human D2R/β-arrestin [7]) | Microsomal Stability: % remaining after 60 minutes [8] | Plasma Stability: % remaining after 5 hours (Plasma stability, mouse) | Plasma Stability: % remaining after 5 hours (Plasma stability, human) | Microsomal Stability: % remaining after 60 minutes [10] | fraction unbound [11] | Ki (D2) | fraction unbound [12] | fraction unbound [13] | Structure (SMILES) | further results
4 | 88.1% | 15.1 | 2.4 | 10.5 µM (≈ 5.09 µg/mL) | 10000 to 30000 nM | 7% | > 30000 nM | < 100 nM | < 100 nM | 35% | 100% | 99.7% | 46% | 0.007 | 100 to 1000 nM | 0.008 | 0.006 | O=C(NC(c1ccc(Cl)cc1)c1ccccn1)C1CCN(CCOc2ccccc2Cl)CC1 (stereo not drawn) [Compound 66, 1-(2-(2-chlorophenoxy)ethyl)-N-((4-chlorophenyl)(pyridin-2-yl)methyl)piperidine-4-carboxamide] | –
5 | h100, m100, r100% | – | – | – | > 30000 nM | 6% | > 30000 nM | 100 to 1000 nM | < 100 nM | 20% | h100, m100, r100% | h100, m100, r100% | 63% | 0.014 | 100 to 1000 nM | 0.023 | 0.005 | Clc1ccc(C(NCC2CCN(CCOc3ccccc3)CC2)c2ccccn2)cc1 (stereo not drawn) [Compound 114, 1-(4-chlorophenyl)-N-((1-(2-phenoxyethyl)piperidin-4-yl)methyl)-1-(pyridin-2-yl)methanamine] | –
6 | 98.0% | 30.4 | 11.5 | 220 µM (≈ 107 µg/mL) | 100 to 1000 nM | 26% | > 30000 nM | 1000 to 10000 nM | > 30000 nM | 77% | 86.2% | 91.2% | 63% | 0.008 | – | 0.015 | 0.005 | O=C(NC(c1ccc(Cl)cc1)c1ccccn1)C1CCN(CCOc2ccc(F)cc2F)CC1 (stereo not drawn) [Compound 115, N-((4-chlorophenyl)(pyridin-2-yl)methyl)-1-(2-(2,4-difluorophenoxy)ethyl)piperidine-4-carboxamide] | –
